Counter-ions that a name gives are not always drawn. Like-named read-outs stand apart in the source and are kept apart here.
What was measured:
[1] = biological target: Human RET kinase cytoplasmic domain (Homo sapiens (Human), UniProt P07949); experiment: RET kinase enzymatic assay; format: biochemical; conditions: human RET kinase enzymatic assay (Table 2)
Protocol: RET Kinase Enzymatic Assay
GST-RET was purified using glutathione sepharose chromatography. The RET kinase enzymatic assay was performed in a total volume of 10 uL with increasing concentrations of RET kinase inhibitor as a singlet in a 384 well format as follows: RET inhibitor compound plates are prepared by adding 100 nL of RET inhibitor at different concentrations to a 384-well plate. 5 μL/well of a 2× enzyme mix (50 mM HEPES (4-(2-hydroxyethyl)-1-piperazineethanesulfonic acid); 1 mM CHAPS (3[(3-cholamidopropyl)dimethylammonio]-1-propanesulfonate); 0.1 mg/mL BSA (bovine serum albumin); 1 mM DTT (dithiothreitol); 0.2 nM RET kinase) was added to the 384-well plate and incubated for 30 minutes at 23° C.

TT cells = experiment: RET kinase cell-based proliferation assay; design: species or system human; conditions: 192 h, read-out: RET IC50
Description: RET Kinase Cell-Based Proliferation Assay

[2] = biological target: constitutive RET kinase phosphorylation in TT cells (Homo sapiens (Human), UniProt P07949, C634W); experiment: RET kinase cell-based mechanistic assay
Protocol: RET Kinase Cell-Based Mechanistic Assay
The potency of the compound of the invention was tested for its ability to inhibit constitutive RET kinase phosphorylation in cell-based assay. […] 1.0E5 TT cells/well were plated in a 96-well cell culture plate and allowed to adhere overnight. […] IC50s were fitted using GraphPad Prism to a sigmoidal dose response.

[3] = human RET kinase cell-based proliferation assay, TT cells, eight days (Table 4)

Chain of constitutive RET kinase phosphorylation in TT cells (P07949 29-1114 C634W): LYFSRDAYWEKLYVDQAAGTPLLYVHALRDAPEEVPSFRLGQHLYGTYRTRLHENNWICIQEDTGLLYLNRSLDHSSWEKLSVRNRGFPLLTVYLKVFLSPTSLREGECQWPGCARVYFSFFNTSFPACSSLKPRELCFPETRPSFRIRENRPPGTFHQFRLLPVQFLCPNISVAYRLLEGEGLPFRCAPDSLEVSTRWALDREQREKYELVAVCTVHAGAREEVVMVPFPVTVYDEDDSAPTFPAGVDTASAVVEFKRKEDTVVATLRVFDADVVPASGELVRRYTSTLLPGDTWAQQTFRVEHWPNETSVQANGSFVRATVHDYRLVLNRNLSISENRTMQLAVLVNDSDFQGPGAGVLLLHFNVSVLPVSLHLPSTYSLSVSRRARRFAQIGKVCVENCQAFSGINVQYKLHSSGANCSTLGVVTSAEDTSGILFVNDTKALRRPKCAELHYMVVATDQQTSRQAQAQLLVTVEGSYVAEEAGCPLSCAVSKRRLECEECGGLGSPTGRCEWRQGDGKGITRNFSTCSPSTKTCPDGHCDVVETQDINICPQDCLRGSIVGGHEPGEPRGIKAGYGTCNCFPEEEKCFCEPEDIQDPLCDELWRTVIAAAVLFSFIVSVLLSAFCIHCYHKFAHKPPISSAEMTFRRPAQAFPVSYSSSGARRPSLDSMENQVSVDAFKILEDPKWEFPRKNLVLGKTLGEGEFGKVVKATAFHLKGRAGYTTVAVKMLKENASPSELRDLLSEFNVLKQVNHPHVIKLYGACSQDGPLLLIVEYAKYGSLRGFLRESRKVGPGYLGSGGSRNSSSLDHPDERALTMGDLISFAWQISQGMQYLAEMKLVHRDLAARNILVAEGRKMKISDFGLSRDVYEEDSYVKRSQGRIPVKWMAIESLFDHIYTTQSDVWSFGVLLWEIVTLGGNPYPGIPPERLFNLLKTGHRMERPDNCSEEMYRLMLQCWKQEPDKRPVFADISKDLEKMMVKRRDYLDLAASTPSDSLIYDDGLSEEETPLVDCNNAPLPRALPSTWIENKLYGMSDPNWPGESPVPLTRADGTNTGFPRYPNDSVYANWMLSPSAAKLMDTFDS
Chain of Human RET kinase cytoplasmic domain (P07949 658-1114): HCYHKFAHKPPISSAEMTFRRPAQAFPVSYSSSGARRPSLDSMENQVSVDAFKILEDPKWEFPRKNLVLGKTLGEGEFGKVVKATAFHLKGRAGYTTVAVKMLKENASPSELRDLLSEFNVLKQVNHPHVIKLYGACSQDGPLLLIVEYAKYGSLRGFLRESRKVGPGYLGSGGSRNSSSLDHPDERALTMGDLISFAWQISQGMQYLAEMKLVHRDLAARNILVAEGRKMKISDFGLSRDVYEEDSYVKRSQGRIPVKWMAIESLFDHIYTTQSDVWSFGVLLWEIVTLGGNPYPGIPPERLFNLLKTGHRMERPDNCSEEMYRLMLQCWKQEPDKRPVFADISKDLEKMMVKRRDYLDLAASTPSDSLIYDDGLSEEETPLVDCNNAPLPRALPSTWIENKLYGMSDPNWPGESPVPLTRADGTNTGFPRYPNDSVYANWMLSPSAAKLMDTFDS

| Structure (SMILES) | IC50 [1] [nM] | IC50 (TT cells; Homo sapiens, TT) [nM] | IC50 [2] [nM] | IC50 (TT cells; [3]) [nM] |
| --- | --- | --- | --- | --- |
| CCOc1cc(-c2ccc(CC(=O)Nc3cc(C(C)(C)C(F)(F)F)nn3C)c(F)c2)c[nH]c1=O [Example 41, 2-(4-(5-ethoxy-6-oxo-1,6-dihydropyridin-3-yl)-2-fluorophenyl)-N-(1-methyl-3-(1,1,1-trifluoro-2-methylpropan-2-yl)-1H-pyrazol-5-yl)acetamide hydrochloride] | < 100 | 100 to 500 | < 100 |  |
| CCOc1cc(-c2ccc(CC(=O)Nc3cc(C(C)(C)C(F)(F)F)n[nH]3)c(F)c2)c[nH]c1=O [Example 42, 2-(4-(5-ethoxy-6-oxo-1,6-dihydropyridin-3-yl)-2-fluorophenyl)-N-(3-(1,1,1-trifluoro-2-methylpropan-2-yl)-1H-pyrazol-5-yl)acetamide hydrochloride] | < 100 | < 100 | < 100 |  |
| CCOc1cc(-c2ccc(CC(=O)Nc3ccc(CC(F)(F)CO)c(C(F)(F)F)c3)c(F)c2)c[nH]c1=O [Example 43, N-(4-(2,2-difluoro-3-hydroxypropyl)-3-(trifluoromethyl)phenyl)-2-(4-(5-ethoxy-6-oxo-1,6-dihydropyridin-3-yl)-2-fluorophenyl)acetamide] | < 100 |  | < 100 | < 100 |
| CCOc1cc(-c2ccc(CC(=O)Nc3cc(-c4cnn(C)c4)cc(C(F)(F)F)c3)c(F)c2)c[nH]c1=O [Example 45, 2-(4-(5-ethoxy-6-oxo-1,6-dihydropyridin-3-yl)-2-fluorophenyl)-N-(3-(1-methyl-1H-pyrazol-4-yl)-5-(trifluoromethyl)phenyl)acetamide hydrochloride] | < 100 | 100 to 500 | < 100 |  |
| CCOc1cc(-c2ccc(CC(=O)Nc3cc(OCCN(C)C)cc(C(F)(F)F)c3)c(F)c2)c[nH]c1=O [Example 46, N-(3-(2-(dimethylamino)ethoxy)-5-(trifluoromethyl)phenyl)-2-(4-(5-ethoxy-6-oxo-1,6-dihydropyridin-3-yl)-2-fluorophenyl)acetamide] | < 100 |  | < 100 | < 100 |

From patent US9789100B2, “Compounds as rearranged during transfection (RET) inhibitors” (GlaxoSmithKline Intellectual Property Development Limited, priority 2013, dated 2017)
